Holding throughout (assay type): cell-based
The target of one assay is MOR (Homo sapiens, UniProt P35372). Kind of assay: GloSensor assay at MOR. The following applies: given as Log IC50 (negative values).
The next assay deals with DOR (Homo sapiens, UniProt P41143). The experiment in a line: GloSensor assay at DOR. The following applies: given as Log IC50 (negative values).
Another assay deals with human KOR (Homo sapiens, UniProt P41145). Kind of assay: GloSensor assay, Gi-mediated cAMP inhibition in HEK-293T cells transfected with human KOR. The following applies: given as Log IC50 (negative values); agonist activity, inhibition of FSK-stimulated cAMP; read-out: GloSensor Assay (Log IC50) KOR (converted).
human KOR, sequence (P41145 whole entry): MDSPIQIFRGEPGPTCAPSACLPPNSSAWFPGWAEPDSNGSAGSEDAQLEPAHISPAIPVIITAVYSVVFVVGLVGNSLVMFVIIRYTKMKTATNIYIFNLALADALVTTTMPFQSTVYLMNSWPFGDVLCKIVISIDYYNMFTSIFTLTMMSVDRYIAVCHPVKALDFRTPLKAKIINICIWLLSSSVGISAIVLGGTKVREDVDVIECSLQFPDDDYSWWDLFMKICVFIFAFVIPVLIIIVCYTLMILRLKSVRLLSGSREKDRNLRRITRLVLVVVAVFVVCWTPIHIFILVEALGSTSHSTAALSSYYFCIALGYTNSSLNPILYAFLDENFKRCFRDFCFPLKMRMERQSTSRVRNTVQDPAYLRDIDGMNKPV

Structures are written as SMILES. pIC50: −log10 of the molar value.

DOR, sequence (P41143 whole entry): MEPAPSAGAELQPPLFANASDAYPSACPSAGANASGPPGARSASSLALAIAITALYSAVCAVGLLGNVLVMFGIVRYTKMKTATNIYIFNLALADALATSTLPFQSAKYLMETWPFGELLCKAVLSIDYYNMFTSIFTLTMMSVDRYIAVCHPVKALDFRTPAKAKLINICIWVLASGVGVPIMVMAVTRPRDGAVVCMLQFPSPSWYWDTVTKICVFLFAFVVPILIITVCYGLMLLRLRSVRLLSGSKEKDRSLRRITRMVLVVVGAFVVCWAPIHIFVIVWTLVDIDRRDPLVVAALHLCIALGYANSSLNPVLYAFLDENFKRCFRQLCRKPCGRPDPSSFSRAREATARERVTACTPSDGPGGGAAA
MOR, sequence (P35372 whole entry): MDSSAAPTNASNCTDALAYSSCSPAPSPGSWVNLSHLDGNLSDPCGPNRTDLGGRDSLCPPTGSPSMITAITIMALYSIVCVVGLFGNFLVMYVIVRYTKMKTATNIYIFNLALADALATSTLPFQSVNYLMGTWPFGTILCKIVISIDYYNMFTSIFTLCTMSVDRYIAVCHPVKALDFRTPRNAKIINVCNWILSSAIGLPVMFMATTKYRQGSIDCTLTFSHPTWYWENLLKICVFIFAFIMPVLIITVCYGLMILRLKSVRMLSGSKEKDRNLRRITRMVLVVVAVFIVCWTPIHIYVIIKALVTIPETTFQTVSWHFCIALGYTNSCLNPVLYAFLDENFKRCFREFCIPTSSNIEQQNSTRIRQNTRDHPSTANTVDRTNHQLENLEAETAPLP

For `Fc1ccc(-n2c[n+]3c4ccccc4c4c5ccccc5[nH]c4c3c2-c2ccccc2)cc1` [12ad, 2-(4-Fluorophenyl)-1-phenyl-2,13-dihydroimidazo[1,5-a]indolo[2,3-c]quinolin-4-ium chloride], the pIC50 against MOR and at DOR was < 5.00 each time. At human KOR, the IC50 (usually the concentration at which inhibition is half-maximal) was > 10 µM.

In the case of `Clc1ccccc1-n1c[n+]2ccc3c4ccccc4[nH]c3c2c1-c1ccc(Br)cc1` [8abj, 1-(4-Bromophenyl)-2-(2-chlorophenyl)-2,11-dihydroimidazo[1′,5′:1,2]pyrido[3,4-b]indol-4-ium], the negative-log IC50 (pIC50) (as a rule, the IC50 on a negative log10 scale, so that one unit is a factor of ten) on MOR is 6.60; on DOR it was < 5.00. Further, the half-inhibitory concentration (IC50) on human KOR was 0.251 µM.

For the compound `Fc1ccc(-n2c[n+]3ccc4c5ccccc5[nH]c4c3c2-c2ccc(Br)cc2)c(Cl)c1` [8abl, 1-(4-Bromophenyl)-2-(2-chloro-4-fluorophenyl)-2,11-dihydrolmidazo[1′,5′:1,2]pyrido[3,4-b]indol-4-ium chloride], the pIC50 against MOR and against DOR was < 5.00 each time. In addition, the IC50 on human KOR is > 10 µM.

As to `Fc1ccc(-c2c3c4[nH]c5ccccc5c4cc[n+]3cn2-c2ccc(F)cc2)cc1` [8agd, 1,2-Bis(4-fluorophenyl)-2,11-dihydroimidazo[1′,5′:1,2]pyrido[3,4-b]indol-4-ium chloride], the pIC50 against MOR and at DOR was < 5.00 in each case. For the same compound, the 50% inhibitory concentration (IC50) on human KOR was > 10 µM.

On to `O=[N+]([O-])c1ccc(-c2c3c4[nH]c5ccccc5c4cc[n+]3cn2-c2ccc(F)cc2)cc1` [8ald, 2-(4-Fluorophenyl)-1-(4-nitrophenyl)-2,11-dihydrolmidazo[1′,5′:1,2]pyrido[3,4-b]indol-4-ium chloride], for which the negative logarithm of the IC50 (pIC50) against MOR and against DOR was < 5.00 each time. Moreover, the IC50 on human KOR is > 10 µM.

With `Fc1ccc(-c2c3c4[nH]c5ccccc5c4cc[n+]3cn2-c2cccc(Cl)c2)cc1` [8agf, 2-(3-Chlorophenyl)-1-(4-fluorophenyl)-2,11-dihydroimidazo[1′,5′:1,2]pyrido[3,4-b]indol-4-ium chloride], the pIC50 against MOR and against DOR was < 5.00 in each case. At human KOR, the IC50 was > 10 µM.

Take `FC(F)(F)c1ccc(Cn2c[n+]3ccc4c5ccccc5[nH]c4c3c2-c2ccc(Br)cc2)cc1` [9aad, 1-(4-Bromophenyl)-2-(4-(trifluoromethyl)benzyl)-2,11-dihydroimidazo[1′,5′:1,2]pyrido[3,4-b]indol-4-ium chloride]: the negative logarithm of the IC50 (pIC50) on MOR and on DOR was < 5.00 in each case. Besides, the IC50 at human KOR is > 10 µM.

`Brc1ccc(-c2c3c4[nH]c5ccccc5c4cc[n+]3cn2-c2ccccc2)cc1` [8aba, 1-(4-Bromophenyl)-2-phenyl-2,11-dihydroimidazo[1′,5′:1,2]pyrido[3,4-b]indol-4-ium chloride]: the pIC50 against MOR and on DOR was < 5.00 each time. Moreover, the IC50 at human KOR was 0.0708 µM.

In the case of `Fc1ccc(-n2c[n+]3ccc4c5ccccc5[nH]c4c3c2-c2cccc(F)c2)cc1` [8aid, 1-(3-Fluorophenyl)-2-(4-fluorophenyl)-2,11-dihydroimidazo[1′,5′:1,2]pyrido[3,4-b]indol-4-ium], the pIC50 against MOR and against DOR was < 5.00 in each case. For the same compound, the IC50 on human KOR was 0.2 µM.

`COc1ccc(Cn2c[n+]3ccc4c5ccccc5[nH]c4c3c2-c2ccc(Br)cc2)cc1OC` [9aag, 1-(4-Bromophenyl)-2-(3,4-dimethoxybenzyl)-2,11-dihydroimidazo[1′,5′:1,2]pyrido[3,4-b]indol-4-ium chloride]: the pIC50 on MOR and against DOR was < 5.00 each time. Besides, the IC50 at human KOR is 0.166 µM.

With `Fc1ccc(-c2c3c4[nH]c5ccccc5c4cc[n+]3cn2-c2ccccc2)cc1` [8aga, 1-(4-Fluorophenyl)-2-phenyl-2,11-dihydroimidazo[1′,5′:1,2]pyrido[3,4-b]indol-4-ium chloride], the pIC50 against MOR and on DOR was < 5.00 in each case. In addition, the IC50 at human KOR was > 10 µM.

Regarding `Clc1cccc(-n2c[n+]3ccc4c5ccccc5[nH]c4c3c2-c2ccccc2)c1` [8aaf, 2-(3-Chlorophenyl)-1-phenyl-2,11-dihydroimidazo[1′,5′:1,2]pyrido[3,4-b]indol-4-ium chloride], the negative logarithm of the IC50 (pIC50) against MOR and at DOR was < 5.00 throughout. Besides, the 50% inhibitory concentration (IC50) on human KOR is > 10 µM.

For the compound `Fc1cccc(-c2c3c4[nH]c5ccccc5c4cc[n+]3cn2-c2ccc(Cl)cc2)c1` [8aic, 2-(4-Chlorophenyl)-1-(3-fluorophenyl)-2,11-dihydrolmidazo[1′,5′:1,2]pyrido[3,4-b]indol-4-ium chloride], the pIC50 at MOR and at DOR was < 5.00 each time. The IC50 at human KOR is 0.0912 µM.

For the compound `COc1cc(-c2c3c4[nH]c5ccccc5c4cc[n+]3cn2-c2ccc(F)cc2)cc(OC)c1OC` [8apd, 2-(4-Fluorophenyl)-1-(3,4,5-trimethoxyphenyl)-2,11-dihydroimidazo[1′,5′:1,2]pyrido[3,4-b]indol-4-ium chloride], the pIC50 against MOR and on DOR was < 5.00 throughout. Further, the IC50 on human KOR was > 10 µM.

Take `Brc1cccc(-n2c[n+]3ccc4c5ccccc5[nH]c4c3c2-c2ccccc2)c1` [8aae, 2-(3-Bromophenyl)-1-phenyl-2,11-dihydrolmidazo[1′,5′:1,2]pyrido[3,4-b]indol-4-ium chloride]: the pIC50 against MOR and on DOR was < 5.00 throughout. On human KOR, the IC50 was > 10 µM.

Consider `Clc1ccc(-n2c[n+]3c4ccccc4c4c5ccccc5[nH]c4c3c2-c2ccc(Br)cc2)cc1` [12bd, 1-(4-Bromophenyl)-2-(4-chlorophenyl)-2,13-dihydroimidazo[1,5-a]indolo[2,3-c]quinolin-4-ium chloride], for which the pIC50 against MOR and on DOR was < 5.00 throughout. Also, the IC50 at human KOR is > 10 µM.

Regarding `Fc1ccc(-n2c[n+]3ccc4c5ccccc5[nH]c4c3c2-c2ccccc2)cc1` [8aad, 2-(4-Fluorophenyl)-1-phenyl-2,11-dihydroimidazo[1′,5′:1,2]pyrido[3,4-b]indol-4-ium chloride], the negative-log IC50 (pIC50) against MOR and against DOR was < 5.00 each time. The IC50 at human KOR is 0.269 µM.

Regarding `Fc1ccc(-c2c3c4[nH]c5ccccc5c4cc[n+]3cn2-c2cccc(Br)c2)cc1` [8age, 2-(3-Bromophenyl)-1-(4-fluorophenyl)-2,11-dihydroimidazo[1′,5′:1,2]pyrido[3,4-b]indol-4-ium chloride], the pIC50 at MOR and at DOR was < 5.00 each time. The IC50 on human KOR was > 10 µM.

On to `Clc1ccc(-c2c3c4[nH]c5ccccc5c4cc[n+]3cn2-c2cccc(Br)c2)cc1` [8ade, 2-(3-Bromophenyl)-1-(4-chlorophenyl)-2,11-dihydroimidazo[1′,5′:1,2]pyrido[3,4-b]indol-4-ium chloride], for which the pIC50 against MOR and on DOR was < 5.00 in each case. Moreover, the IC50 on human KOR was > 10 µM.

Regarding `Cc1ccc(-c2c3c4[nH]c5ccccc5c4c4ccccc4[n+]3cn2-c2ccc(F)cc2)cc1` [12bc, 2-(4-Fluorophenyl)-1-(p-tolyl)-2,13-dihydrolmidazo[1,5-a]indolo[2,3-c]quinolin-4-ium chloride], the negative logarithm of the IC50 (pIC50) on MOR and against DOR was < 5.00 in each case. In addition, the IC50 on human KOR was > 10 µM.

Take `Brc1ccc2[nH]c3c(cc[n+]4cn(-c5ccccc5)c(-c5ccccc5Br)c34)c2c1` [8cca, 8-Bromo-1-(2-bromophenyl)-2-phenyl-2,11-dihydrolmidazo[1′,5′:1,2]pyrido[3,4-b]indol-4-ium chloride]: the pIC50 against MOR and against DOR was < 5.00 each time. Also, the IC50 at human KOR is > 10 µM.

Consider `COc1ccc(-n2c[n+]3ccc4c5ccccc5[nH]c4c3c2-c2ccc(Cl)cc2)cc1` [8adg, 1-(4-Chlorophenyl)-2-(4-methoxyphenyl)-2,11-dihydroimidazo[1′,5′:1,2]pyrido[3,4-b]indol-4-ium chloride], for which the negative-log IC50 (pIC50) on MOR and against DOR was < 5.00 throughout. In addition, the IC50 at human KOR is 0.794 µM.

`COc1ccc(Cn2c[n+]3ccc4c5ccccc5[nH]c4c3c2-c2ccc(Cl)cc2)cc1OC` [9abg, 1-(4-Chlorophenyl)-2-(3,4-dimethoxybenzyl)-2,11-dihydroimidazo[1′,5′:1,2]pyrido[3,4-b]indol-4-ium chloride]: the pIC50 against MOR and at DOR was < 5.00 throughout. For the same compound, the concentration for half-maximal inhibition (IC50) on human KOR is 0.955 µM.

For `Fc1ccc(-n2c[n+]3ccc4c5ccccc5[nH]c4c3c2-c2ccc(Br)cc2)cc1F` [8abm, 1-(4-Bromophenyl)-2-(3,4-difluorophenyl)-2,11-dihydroimidazo[1′,5′:1,2]pyrido[3,4-b]indol-4-ium chloride], the pIC50 at MOR and on DOR was < 5.00 each time. Further, the IC50 at human KOR was > 10 µM.

On to `Fc1cccc(-n2c[n+]3ccc4c5ccccc5[nH]c4c3c2-c2ccccc2Br)c1` [8aci, 1-(2-Bromophenyl)-2-(3-fluorophenyl)-2,11-dihydroimidazo[1′,5′:1,2]pyrido[3,4-b]indol-4-ium], for which the pIC50 at MOR and at DOR was < 5.00 in each case. Further, at human KOR, the IC50 is 0.0631 µM.

As for `COc1ccc(-n2c[n+]3ccc4c5ccccc5[nH]c4c3c2-c2ccc(Br)cc2)cc1` [8abg, 1-(4-Bromophenyl)-2-(4-methoxyphenyl)-2,11-dihydrolmidazo[1′,5′:1,2]pyrido[3,4-b]indol-4-ium chloride], the pIC50 on MOR and at DOR was < 5.00 throughout. Moreover, the IC50 at human KOR was > 10 µM.

For the compound `Fc1ccc(Cn2c[n+]3ccc4c5ccccc5[nH]c4c3c2-c2ccc(Br)cc2)cc1` [9aab, 1-(4-Bromophenyl)-2-(4-fluorobenzyl)-2,11-dihydroimidazo[1′,5′:1,2]pyrido[3,4-b]indol-4-ium chloride], the pIC50 on MOR and against DOR was < 5.00 throughout. Besides, the half-inhibitory concentration (IC50) on human KOR is 0.263 µM.
